{
  "source": "paper PMC11678778",
  "about": "“Anti-Inflammatory Properties of Novel 1,2-Benzothiazine Derivatives and Their Interaction with Phospholipid Model Membranes” (Membranes, 2024)",
  "key": {"[1]": {"test_system": "NHDF (normal human dermal fibroblast) cells", "experiment": "MTT cytotoxicity assay", "type": "cell-based", "conditions": "NHDF cell cultures, 24 h incubation, mean ± SD", "description": "NHDF (normal human dermal fibroblast) cells, sourced from the American Type Culture Collection (ATCC), were maintained in DMEM without phenol red, enhanced with 10% fetal bovine serum (FBS), 2 mM L-glutamine, and 25 μg/mL gentamicin. The cells were incubated under conditions of 5% CO2, at a temperature of 37 °C, and 95% humidity. We monitored the cells bi-weekly, utilizing or subculturing them once they reached over 70% confluence. For all experimental setups, cells were plated at a density of 10,000 cells per well and allowed to recover in a CO2 incubator for 24 h.\nThe compounds under investigation were dissolved in DMSO to achieve a final concentration of 10 mM and then stored at −20 °C. Lipopolysaccharide (LPS) from Escherichia coli (Sigma-Aldrich, Saint Louis, MO, USA; catalog no. L2630) was dissolved in distilled water to a concentration of […]. The stock solution of LPS was stored at −20 °C for up to 6 months. Final concentrations of LPS used in this study were 50 µg/mL. Prior to use, the solutions were thawed at room temperature. For each compound, 8 different concentrations in the range of 500–10 μM were prepared in the culture medium.\nThe cytotoxicity of the test compound was assessed using the MTT assay. After cell seeding and overnight incubation, the supernatant was removed, and the compounds were added at concentrations ranging from 500 to 10 µM. Control cells were treated with complete medium only, while cells treated with medium containing DMSO at the highest compound concentration were included as the solvent control. After the incubation period, the supernatant was removed, and 50 µL of a 1.0 mg/mL MTT solution was added to each well and incubated for 2 h at 37 °C. The medium was then removed, and 100 µL of DMSO was added to each well. Finally, absorbance was measured at 570 nm using a Multiskan GO spectrophotometer.\nCell viability was calculated according to Equation (1): (Ai − Am)/(Ac − Am) × 100(Ai − Am)/(Ac − Am) × 100(1) where Ai is the absorbance of the tested concentration, Am is the absorbance of the medium, and Ac is the absorbance of the control. Based on the cytotoxicity test results, the IC50 was calculated using a 4-point lognormal distribution with a Hill coefficient. Experiments were performed in triplicate."}, "[2]": {"test_system": "NHDF cells exposed to LPS", "experiment": "Inflammation model, MTT assay after LPS", "type": "cell-based, human", "conditions": "LPS 50 µg/mL 24 h, then compound 10, 50, 100 µM 24 h", "description": "Cells seeded in 96-well plates were treated with 50 ug/mL LPS for 24 h for the MTT assay or 1 h for the DCF-DA assay. […] After this time, MTT and DCF-DA assays were performed according to the procedure described in Wiatrak et al."}, "[3]": {"experiment": "DPPH radical scavenging assay", "type": "physicochemical", "conditions": "30 min incubation, 37 °C; mean ± SD, n = 3", "description": "The DPPH assay was conducted to assess the radical scavenging capabilities of the synthesized compounds. Stock solutions of the compounds were formulated in DMSO and subsequently diluted serially to achieve test concentrations ranging from 500 to 10 μM in ethanol. Each sample’s ethanolic DPPH solution was treated with the respective test concentrations and incubated at 37 °C. After a 30 min incubation period, the absorbance was measured at 517 nm, using ethanol as the blank control. Ascorbic acid served as the reference standard, and the IC50 values for the synthesized compounds were determined using the following Equation (2):(2) %DPPH scavenging activity=Abscontrol−Abs sample/Abs (control)×100"}, "TNF-α": {"test_system": "TNF-α", "experiment": "Gene expression by real-time RT-PCR", "type": "cell-based, human", "conditions": "inflamed NHDF cells, 10 µM, 24 h", "description": "(§1) The NHDF cells were treated according to the previously outlined procedure. The control and LPS groups were incubated separately in culture dishes containing DMEM, while the test compounds groups were placed in dishes with 10 µM BS23 and BS28, respectively. After a 24 h incubation at 37 °C in a 5% CO2 atmosphere, the NHDF cells were scraped from the bottom of the microplate using a rubber, and then they were centrifuged at 9000× g for 5 min. The pellet was washed with ice-cold PBS twice. RNA was isolated using a Total RNA Mini Plus kit (A&A Biotechnology, Gdańsk, Poland) followed by DNase I (Thermo Fisher Scientific, Waltham, MA, USA) treatment according to the producer’s instructions. cDNA synthesis was performed using a Fast Gene Scriptase II cDNA (Nippon Genetics Europe, Duren, Germany). RT-qPCR analyses were performed using the DyNAmo Flash SYBR Green qPCR Kit (Thermo Fisher Scientific, Waltham, MA, USA) and the CFX Connect Real-Time PCR Detection System (Bio-Rad, Hercules, CA, USA) . Relative gene expression was normalized to the reference gene, β-actin, using the 2^−ΔΔCT method. The primer sequences utilized in this study were as follows: IL-6: F, 5′-[…]-3′; R, 5′-[…]-3′; TNF-α: F, 5′-[…]-3′; R, 5′-[…]-3′; β-actin: F, 5′-[…]-3′; R, 5′-[…]-3′. All experiments were performed at least three times."}, "IL-6": {"test_system": "IL-6", "experiment": "Gene expression by real-time RT-PCR", "type": "cell-based, human", "conditions": "inflamed NHDF cells, 10 µM, 24 h", "description": "as §1"}},
  "data": [
    {"smiles": "COc1ccc(C(=O)C2=C(O)c3ccccc3S(=O)(=O)N2CCCN2CCN(c3ccccn3)CC2)cc1", "note": "[BS23]", "values": [
      {"measurement": "IC50", "setting": "[1]", "result": "228 ± 28.1", "unit": "µM"},
      {"measurement": "cell viability after LPS then compound", "setting": "[2]", "result": "around 70 % of the value for untreated (control) cells"},
      {"measurement": "IC50", "setting": "[3]", "result": "> 500", "unit": "µM"},
      {"measurement": "expression of TNF-α mRNA compared to the LPS group", "setting": "TNF-α", "result": "markedly reduced"},
      {"measurement": "expression of IL-6 mRNA compared to the LPS group", "setting": "IL-6", "result": "markedly reduced"}
    ]},
    {"smiles": "O=C(C1=C(O)c2ccccc2S(=O)(=O)N1CC(=O)N1CCN(c2ccccc2)CC1)c1ccc(Br)cc1", "note": "[BS28, 3-(4-Bromobenzoyl)-2-[2-(4-phenylpiperazin-1-yl)-2-oxoethyl]-4-hydroxy-2H-1,2-benzothiazine 1,1-dioxide]", "values": [
      {"measurement": "IC50", "setting": "[1]", "result": "180 ± 13.6", "unit": "µM"},
      {"measurement": "IC50", "setting": "[3]", "result": "> 500", "unit": "µM"},
      {"measurement": "expression of TNF-α mRNA compared to the LPS group", "setting": "TNF-α", "result": "markedly reduced"},
      {"measurement": "expression of IL-6 mRNA compared to the LPS group", "setting": "IL-6", "result": "markedly reduced"}
    ]}
  ]
}
